Laboratory results reported in US7105565B2 (dated 2006).

| melting point | SMILES |
| --- | --- |
| 83 to 85 °C | CC(C)CC(C)c1ccccc1NC(=O)c1cn(C)cc1C(F)(F)F (centres unmarked) |
| 75 to 77 °C | COCn1cc(C(=O)Nc2ccccc2C(C)CC(C)C)c(C(F)(F)F)c1 (centres unmarked) |
